Measured values reported in patent publication US9932341B2, “Use of pyrazolopyrimidine derivatives for the treatment of PI3K-delta related disorders” (Incyte Corporation, priority 2013, dated 2018).
Counter-ions that a name gives are not always drawn.

Molecular target: PI3Kδ (p110δ/p85α) (Homo sapiens (Human), UniProt O00329)
Assay: PI3Kδ Scintillation Proximity Assay (Example A3)
Assay type: biochemical
Conditions: 20 μM ATP, 20 μM PIP2, 4 nM PI3Kδ, read-out: PI3Kδ SPA IC50
Protocol: [γ-^33P]ATP (10 mCi/mL) was purchased from PerkinElmer (Waltham, Mass.). […] PI3Kδ (p110δ/p85α) was purchased from Millipore (Bedford, Mass.). ATP, MgCl2, DTT, EDTA, MOPS and CHAPS were purchased from Sigma-Aldrich (St. Louis, Mo.). Wheat Germ Agglutinin (WGA) YSi SPA Scintillation Beads was purchased from GE healthcare life sciences (Piscataway, N.J.).
The kinase reaction was conducted in polystyrene 384-well matrix white plate from Thermo Fisher Scientific in a final volume of 25 μL. Inhibitors were first diluted serially in DMSO and added to the plate wells before the addition of other reaction components. The final concentration of DMSO in the assay was 0.5%. The PI3K assays were carried out at room temperature in 20 mM MOPS, pH 6.7, 10 mM MgCl2, 5 mM DTT and CHAPS 0.03%. Reactions were initiated by the addition of ATP, the final reaction mixture consisted of 20 μM PIP2, 20 μM ATP, 0.2 μCi [γ-^33P] ATP, 4 nM PI3Kδ. […] 25 mM EDTA, 400 μM ATP. The final concentration of SPA beads was 1.0 mg/mL. After the plate sealing, plates were shaken overnight at room temperature and centrifuged at 1800 rpm for 10 minutes, the radioactivity of the product was determined by scintillation counting on Topcount (PerkinElmer). IC50 determination was performed by fitting the curve of percent control activity versus the log of the inhibitor concentration using the GraphPad Prism 3.0 software.

Chain of PI3Kδ (p110δ/p85α) (O00329 whole entry): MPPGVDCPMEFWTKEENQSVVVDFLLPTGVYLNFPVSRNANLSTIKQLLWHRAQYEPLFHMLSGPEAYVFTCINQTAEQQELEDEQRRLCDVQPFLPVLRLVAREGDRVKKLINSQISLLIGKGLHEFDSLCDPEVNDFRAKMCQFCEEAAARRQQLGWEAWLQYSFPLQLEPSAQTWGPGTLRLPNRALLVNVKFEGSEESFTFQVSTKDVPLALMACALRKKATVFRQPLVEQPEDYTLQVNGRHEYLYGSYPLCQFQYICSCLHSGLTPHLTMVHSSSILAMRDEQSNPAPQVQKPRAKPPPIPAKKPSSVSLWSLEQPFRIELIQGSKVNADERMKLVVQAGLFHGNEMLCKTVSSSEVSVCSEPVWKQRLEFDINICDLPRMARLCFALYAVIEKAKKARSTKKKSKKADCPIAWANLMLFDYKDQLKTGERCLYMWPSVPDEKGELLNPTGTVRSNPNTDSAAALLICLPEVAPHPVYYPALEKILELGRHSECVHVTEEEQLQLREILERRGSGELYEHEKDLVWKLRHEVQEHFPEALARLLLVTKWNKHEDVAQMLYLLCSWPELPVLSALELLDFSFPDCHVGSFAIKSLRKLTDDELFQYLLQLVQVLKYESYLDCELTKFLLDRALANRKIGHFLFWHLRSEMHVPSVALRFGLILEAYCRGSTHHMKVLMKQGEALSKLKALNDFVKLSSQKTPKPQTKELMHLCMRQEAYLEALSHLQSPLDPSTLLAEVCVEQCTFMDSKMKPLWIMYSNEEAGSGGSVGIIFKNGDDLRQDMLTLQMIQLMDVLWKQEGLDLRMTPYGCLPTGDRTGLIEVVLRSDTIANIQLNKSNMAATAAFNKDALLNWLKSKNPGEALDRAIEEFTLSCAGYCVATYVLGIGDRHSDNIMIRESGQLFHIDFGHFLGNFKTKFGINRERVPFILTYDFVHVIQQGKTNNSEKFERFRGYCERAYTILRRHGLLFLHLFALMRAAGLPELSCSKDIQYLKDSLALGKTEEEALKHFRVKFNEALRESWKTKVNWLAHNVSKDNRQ
Chain of PI3Kδ (p110δ/p85α) (P27986 whole entry partner): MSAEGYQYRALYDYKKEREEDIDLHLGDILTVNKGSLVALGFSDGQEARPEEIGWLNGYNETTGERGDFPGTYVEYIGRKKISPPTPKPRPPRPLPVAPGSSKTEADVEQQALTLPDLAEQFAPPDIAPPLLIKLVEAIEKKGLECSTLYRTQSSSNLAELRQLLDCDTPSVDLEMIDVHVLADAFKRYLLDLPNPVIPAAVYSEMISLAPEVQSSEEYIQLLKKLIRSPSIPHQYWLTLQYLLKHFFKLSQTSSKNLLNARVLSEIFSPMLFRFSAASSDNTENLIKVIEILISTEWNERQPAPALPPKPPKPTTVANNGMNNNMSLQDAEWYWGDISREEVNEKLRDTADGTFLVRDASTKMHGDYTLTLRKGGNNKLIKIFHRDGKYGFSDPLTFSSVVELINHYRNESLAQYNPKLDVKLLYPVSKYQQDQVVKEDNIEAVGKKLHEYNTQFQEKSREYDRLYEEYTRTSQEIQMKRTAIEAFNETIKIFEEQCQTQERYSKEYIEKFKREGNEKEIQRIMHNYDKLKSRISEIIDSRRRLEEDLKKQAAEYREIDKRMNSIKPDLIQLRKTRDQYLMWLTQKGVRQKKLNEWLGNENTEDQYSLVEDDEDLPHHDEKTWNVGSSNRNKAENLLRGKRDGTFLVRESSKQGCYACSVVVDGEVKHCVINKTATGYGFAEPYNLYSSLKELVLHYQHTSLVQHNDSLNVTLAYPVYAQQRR

SMILES | IC50 [nM]
COc1c(C(C)n2nc(C)c3c(N)ncnc32)cc(Cl)c(C)c1C1CN(C(=O)[C@H](C)O)C1 (single isomer, unassigned) [Example 118] | < 10
COc1c(C(C)n2nc(C)c3c(N)ncnc32)cc(Cl)c(C)c1C1CN(C(=O)[C@@H](C)O)C1 (single isomer, unassigned) [Example 121, trifluoroacetate] | < 10
COc1c(C(C)n2nc(C)c3c(N)ncnc32)cc(Cl)c(C)c1C1CN(CC(C)(C)O)C1 (single isomer, unassigned) [Example 158, 1-(3-{3-[1-(4-Amino-3-methyl-1H-pyrazolo[3,4-d]pyrimidin-1-yl)ethyl]-5-chloro-2-methoxy-6-methylphenyl}azetidin-1-yl)-2-methylpropan-2-ol] | < 10
COc1c(C(C)n2nc(C)c3c(N)ncnc32)cc(Cl)c(C)c1C1CN(C2(CC#N)CCC2)C1 (single isomer, unassigned) [Example 161, [1-(3-{3-[1-(4-Amino-3-methyl-1H-pyrazolo[3,4-d]pyrimidin-1-yl)ethyl]-5-chloro-2-methoxy-6-methylphenyl}azetidin-1-yl)cyclobutyl]acetonitrile] | < 10
COc1c(C(C)n2nc(C)c3c(N)ncnc32)cc(Cl)c(C)c1-c1cnc(N)nc1 (single isomer, unassigned) [Example 169, 1-(1-(3-(2-aminopyrimidin-5-yl)-5-chloro-2-methoxy-4-methylphenyl)ethyl)-3-methyl-1H-pyrazolo[3,4-d]pyrimidin-4-amine] | < 10
COc1c(C(C)n2nc(C)c3c(N)ncnc32)cc(Cl)c(C)c1-c1cnn(CCN(C)C)c1 (single isomer, unassigned) [Example 183, 1-[1-(5-Chloro-3-{1-[2-(dimethylamino)ethyl]-1H-pyrazol-4-yl}-2-methoxy-4-methylphenyl)ethyl]-3-methyl-1H-pyrazolo[3,4-d]pyrimidin-4-amine] | < 10
COc1c(C(C)n2nc(C)c3c(N)ncnc32)cc(Cl)c(C)c1-c1ccc(NCCO)nc1 (single isomer, unassigned) [Example 184, 2-[(5-{3-[1-(4-Amino-3-methyl-1H-pyrazolo[3,4-d]pyrimidin-1-yl)ethyl]-5-chloro-2-methoxy-6-methylphenyl}pyridin-2-yl)amino]ethanol] | < 10
COc1c(C(C)n2nc(C)c3c(N)ncnc32)cc(Cl)c(C)c1-c1ccc(OCCO)nc1 (single isomer, unassigned) [Example 188, 2-(5-(3-(1-(4-Amino-3-methyl-1H-pyrazolo[3,4-d]pyrimidin-1-yl)ethyl)-5-chloro-2-methoxy-6-methylphenyl)pyridin-2-yloxy)ethanol] | < 10
Cc1c(Cl)cc(C(C)n2nc(C)c3c(N)ncnc32)c(OCC(F)F)c1-c1ccc(C(=O)N(C)C)nc1 (single isomer, unassigned) [Example 189, 5-(3-(1-(4-Amino-3-methyl-1H-pyrazolo[3,4-d]pyrimidin-1-yl)ethyl)-5-chloro-2-(2,2-difluoroethoxy)-6-methylphenyl)-N,N-dimethylpicolinamide bis(2,2,2-trifluoroacetate)] | < 10
CCOc1c(C(C)n2nc(C)c3c(N)ncnc32)cc(Cl)c(C)c1-c1cnn(CC(N)=O)c1 (single isomer, unassigned) [Example 203, 2-(4-(3-(1-(4-Amino-3-methyl-1H-pyrazolo[3,4-d]pyrimidin-1-yl)ethyl)-5-chloro-2-ethoxy-6-methylphenyl)-1H-pyrazol-1-yl)acetamide] | < 10
CCOc1c(C(C)n2nc(C)c3c(N)ncnc32)cc(Cl)c(C#N)c1C1CNC1 (single isomer, unassigned) [Example 212, 4-[1-(4-Amino-3-methyl-1H-pyrazolo[3,4-d]pyrimidin-1-yl)ethyl]-2-azetidin-3-yl-6-chloro-3-ethoxybenzonitrile] | < 10
CCOc1c(C(C)n2nc(C)c3c(N)ncnc32)cc(Cl)c(C#N)c1C1CN(C)C1 (single isomer, unassigned) [Example 213, 4-[1-(4-Amino-3-methyl-1H-pyrazolo[3,4-d]pyrimidin-1-yl)ethyl]-6-chloro-3-ethoxy-2-(1-methylazetidin-3-yl)benzonitrile] | < 10
CCOc1c(C(C)n2nc(C)c3c(N)ncnc32)cc(Cl)c(C#N)c1C1CN(CCO)C1 (single isomer, unassigned) [Example 219, 4-[1-(4-Amino-3-methyl-1H-pyrazolo[3,4-d]pyrimidin-1-yl)ethyl]-6-chloro-3-ethoxy-2-[1-(2-hydroxyethyl)azetidin-3-yl]benzonitrile] | < 10
CCOc1c(C(C)n2nc(C)c3c(N)ncnc32)cc(Cl)c(C#N)c1C1CN(C(C)(C)C(=O)OC(C)(C)C)C1 (single isomer, unassigned) [Example 236, tert-Butyl 2-(3-{3-[1-(4-amino-3-methyl-1H-pyrazolo[3,4-d]pyrimidin-1-yl)ethyl]-5-chloro-6-cyano-2-ethoxyphenyl}azetidin-1-yl)-2-methylpropanoate] | < 10
CCOc1c(C(C)n2nc(C)c3c(N)ncnc32)cc(Cl)c(C#N)c1C1CN(C(C)(C)CO)C1 (single isomer, unassigned) [Example 237, 4-[1-(4-Amino-3-methyl-1H-pyrazolo[3,4-d]pyrimidin-1-yl)ethyl]-6-chloro-3-ethoxy-2-[1-(2-hydroxy-1,1-dimethylethyl)azetidin-3-yl]benzonitrile] | < 10
CCOc1c(C(C)n2nc(C)c3c(N)ncnc32)cc(Cl)c(C#N)c1C1CN(C(C)(C)C(N)=O)C1 (single isomer, unassigned) [Example 239, 2-{3-(3-[1-(4-Amino-3-methyl-1H-pyrazolo[3,4-d]pyrimidin-1-yl)ethyl]-5-chloro-6-cyano-2-ethoxyphenyl}azetidin-1-yl)-2-methylpropan amide] | < 10
CCOc1c(C(C)n2nc(C)c3c(N)ncnc32)cc(Cl)c(C#N)c1C1CN(C(=O)C(C)(C)O)C1 (single isomer, unassigned) [Example 247, 4-[1-(4-Amino-3-methyl-1H-pyrazolo[3,4-d]pyrimidin-1-yl)ethyl]-6-chloro-3-ethoxy-2-[1-(2-hydroxy-2-methylpropanoyl)azetidin-3-yl]benzonitrile] | < 10

The next lines start with the values.

IC50 [nM] | SMILES
< 10 | COc1c(C(C)n2nc(C)c3c(N)ncnc32)cc(Cl)c(C)c1-c1ccc(C(=O)N(C)C)c(F)c1 (single isomer, unassigned) [Example 21, 3′-[1-(4-Amino-3-methyl-1H-pyrazolo[3,4-d]pyrimidin-1-yl)ethyl]-5′-chloro-3-fluoro-2′-methoxy-N,N,6′-trimethylbiphenyl-4-carboxamide trifluoroacetate]
< 10 | CNC(=O)c1ccc(-c2c(C)c(Cl)cc(C(C)n3nc(C)c4c(N)ncnc43)c2OC)cc1F (single isomer, unassigned) [Example 22, 3′-[1-(4-Amino-3-methyl-1H-pyrazolo[3,4-d]pyrimidin-1-yl)ethyl]-5′-chloro-3-fluoro-2′-methoxy-N,6′-dimethylbiphenyl-4-carboxamide trifluoroacetate]
< 10 | COc1c(C(C)n2nc(C)c3c(N)ncnc32)cc(Cl)c(C)c1-c1cncc(C(=O)N(C)C)c1 (single isomer, unassigned) [Example 65, 5-{3-[1-(4-amino-3-methyl-1H-pyrazolo[3,4-d]pyrimidin-1-yl)ethyl]-5-chloro-2-methoxy-6-methylphenyl}-N,N-dimethylnicotinamide]
< 10 | CCOc1c(C(C)n2nc(C)c3c(N)ncnc32)cc(Cl)c(C)c1C1CN(C(C)C)C1 (single isomer, unassigned) [Example 94, 1-{1-[5-Chloro-2-ethoxy-3-(1-isopropylazetidin-3-yl)-4-methylphenyl]ethyl}-3-methyl-1H-pyrazolo[3,4-d]pyrimidin-4-amine bis(trifluoroacetate)]
< 10 | COc1c(C(C)n2nc(C)c3c(N)ncnc32)cc(Cl)c(C)c1C1CN(CCO)C1 (single isomer, unassigned) [Example 104, 2-(3-{3-[1-(4-Amino-3-methyl-1H-pyrazolo[3,4-d]pyrimidin-1-yl)ethyl]-5-chloro-2-methoxy-6-methylphenyl}azetidin-1-yl)ethanol]
< 10 | COc1c(C(C)n2nc(C)c3c(N)ncnc32)cc(Cl)c(C)c1C1CN(CC#N)C1 (single isomer, unassigned) [Example 105, (3-{3-[1-(4-Amino-3-methyl-1H-pyrazolo[3,4-d]pyrimidin-1-yl)ethyl]-5-chloro-2-methoxy-6-methylphenyl}azetidin-1-yl)acetonitrile]
< 10 | COc1c(C(C)n2nc(C)c3c(N)ncnc32)cc(Cl)c(C)c1C1CN(CC(F)(F)F)C1 (single isomer, unassigned) [Example 108, 1-(1-{5-Chloro-2-methoxy-4-methyl-3-[1-(2,2,2-trifluoroethyl)azetidin-3-yl]phenyl}ethyl)-3-methyl-1H-pyrazolo[3,4-d]pyrimidin-4-amine]
< 10 | COc1c(C(C)n2nc(C)c3c(N)ncnc32)cc(Cl)c(C)c1C1CN(C[C@@H](O)C(F)(F)F)C1 (single isomer, unassigned) [Example 115]
